From patent publication US20240199546A1, “INHIBITORS OF SOLUTE CARRIER FAMILY 6A MEMBER 19 (SLC6A19) AND METHODS OF USE THEREOF” (Maze Therapeutics, Inc., priority 2022, published 2024)

Target: T1, human SLC6A19 and TMEM27 (Homo sapiens, UniProt Q695T7)
T1 construct: expressed in transfected cells
T1 sequence (Q695T7 1-634): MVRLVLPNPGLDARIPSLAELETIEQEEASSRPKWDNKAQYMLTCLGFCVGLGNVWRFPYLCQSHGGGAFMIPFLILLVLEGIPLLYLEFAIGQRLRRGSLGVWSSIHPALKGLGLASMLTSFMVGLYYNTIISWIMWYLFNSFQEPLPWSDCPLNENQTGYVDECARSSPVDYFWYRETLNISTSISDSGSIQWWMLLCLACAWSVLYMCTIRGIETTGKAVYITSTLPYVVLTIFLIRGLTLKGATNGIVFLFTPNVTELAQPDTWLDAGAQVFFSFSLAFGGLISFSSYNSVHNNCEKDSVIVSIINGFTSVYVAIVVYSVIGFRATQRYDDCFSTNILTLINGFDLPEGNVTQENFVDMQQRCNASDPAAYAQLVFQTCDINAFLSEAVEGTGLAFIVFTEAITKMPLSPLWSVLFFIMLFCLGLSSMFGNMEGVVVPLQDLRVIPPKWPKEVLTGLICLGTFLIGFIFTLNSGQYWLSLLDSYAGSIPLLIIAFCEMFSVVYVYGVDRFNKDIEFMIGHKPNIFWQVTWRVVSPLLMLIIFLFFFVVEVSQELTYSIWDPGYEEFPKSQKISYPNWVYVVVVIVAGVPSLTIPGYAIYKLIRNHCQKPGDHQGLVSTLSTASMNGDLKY
T1 sequence (Q9HBJ8 15-222 partner): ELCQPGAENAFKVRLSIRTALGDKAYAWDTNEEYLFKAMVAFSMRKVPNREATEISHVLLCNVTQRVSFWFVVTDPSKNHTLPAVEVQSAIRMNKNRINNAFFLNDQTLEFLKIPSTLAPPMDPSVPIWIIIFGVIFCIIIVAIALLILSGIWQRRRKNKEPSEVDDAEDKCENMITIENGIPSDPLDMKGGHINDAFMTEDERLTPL
Assay: Radiolabelled (3H) leucine uptake in CHO cells with doxycycline-inducible expression of human SLC6A19 and TMEM27 (Example B-1)
Assay type: cell-based
Details: CHO cells with doxycycline-inducible expression of human SLC6A19 and TMEM27, read-out: SLC6A19_Radioligand Uptake Assay IC50
Procedure, shortened: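 CHO cells were induced with doxycycline for 18 h at 37 °C, washed in HBSS, then exposed to compounds for 1 h: 8-point, 3-fold dilutions in duplicate, 0.5% DMSO final. Uptake measured by scintillation counting after 2 h shaking. Activity normalized with positive control as 0% and DMSO as 100%.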

IC50 [nM]	SMILES
408	O=C(NCc1cc2cc(C(F)(F)F)c(OCc3ccon3)cc2[nH]1)N1CCCC1 [Compound 476, N-((6-(isoxazol-3-ylmethoxy)-5-(trifluoromethyl)-1H-indol-2-yl)methyl)pyrrolidine-1-carboxamide]
383	O=C(NCc1cc2cc(C(F)(F)F)c(OCc3ccon3)cc2[nH]1)N1CCC1 [Compound 477, N-((6-(isoxazol-3-ylmethoxy)-5-(trifluoromethyl)-1H-indol-2-yl)methyl)azetidine-1-carboxamide]
372	O=C(NCc1cc2cc(OC(F)(F)F)c(OCc3cocn3)cc2[nH]1)N1CCC1 [Compound 480, N-((6-(oxazol-4-ylmethoxy)-5-(trifluoromethoxy)-1H-indol-2-yl)methyl)azetidine-1-carboxamide]
149	[2H]C([2H])([2H])C1(C(=O)NCc2cc3cc(F)c(OCc4cscn4)cc3[nH]2)CC1 [Compound 482, N-((5-fluoro-6-(thiazol-4-ylmethoxy)-1H-indol-2-yl)methyl)-1-(methyl-d3)cyclopropane-1-carboxamide]
170	[2H]C([2H])([2H])C1(C(=O)NCc2cc3cc(Cl)c(OCc4cscn4)cc3[nH]2)CC1 [Compound 483, N-((5-chloro-6-(thiazol-4-ylmethoxy)-1H-indol-2-yl)methyl)-1-(methyl-d3)cyclopropane-1-carboxamide]
199	Cc1cc(COc2cc3[nH]c(CNC(=O)C4(C#N)CC4)cc3cc2Cl)on1 [Compound 484, N-((5-chloro-6-((3-methylisoxazol-5-yl)methoxy)-1H-indol-2-yl)methyl)-1-cyanocyclopropane-1-carboxamide]
578	Cc1cc(COc2cc3[nH]c(CNC(=O)C(C)(C)C#N)cc3cc2Cl)on1 [Compound 485, N-((5-chloro-6-((3-methylisoxazol-5-yl)methoxy)-1H-indol-2-yl)methyl)-2-cyano-2-methylpropanamide]
367	Cc1cc(COc2cc3[nH]c(CNC(=O)C4(C#N)CCC4)cc3cc2Cl)on1 [Compound 487, N-((5-chloro-6-((3-methylisoxazol-5-yl)methoxy)-1H-indol-2-yl)methyl)-1-cyanocyclobutane-1-carboxamide]
161	O=C(NCc1cc2cc(Cl)c(OCc3ccon3)cc2[nH]1)C1CCC1 [Compound 488, N-((5-chloro-6-(isoxazol-3-ylmethoxy)-1H-indol-2-yl)methyl)cyclobutanecarboxamide]
325	O=C(NCc1cc2cc(Cl)c(OCc3cscn3)cc2[nH]1)C1CCCC1 [Compound 489, N-((5-chloro-6-(thiazol-4-ylmethoxy)-1H-indol-2-yl)methyl)cyclopentanecarboxamide]
178	O=C(NCc1cc2cc(Cl)c(OCc3cscn3)cc2[nH]1)C1CCC1 [Compound 490, N-((5-chloro-6-(thiazol-4-ylmethoxy)-1H-indol-2-yl)methyl)cyclobutanecarboxamide]
814	O=C(NCc1cc2cc(Cl)c(OCc3ccon3)cc2[nH]1)C1CC(F)(F)C1 [Compound 491, N-((5-chloro-6-(isoxazol-3-ylmethoxy)-1H-indol-2-yl)methyl)-3,3-difluorocyclobutane-1-carboxamide]
359	O=C(NCc1cc2cc(Cl)c(OCc3ccon3)cc2[nH]1)C1CCCC1 [Compound 492, N-((5-chloro-6-(isoxazol-3-ylmethoxy)-1H-indol-2-yl)methyl)cyclopentanecarboxamide]
203	O=C(NCc1cc2cc(F)c(OCc3ccccn3)cc2[nH]1)C1CC1 [Compound 505, N-((5-fluoro-6-(pyridin-2-ylmethoxy)-1H-indol-2-yl)methyl)cyclopropanecarboxamide]
331	CC1(C(=O)NCc2cc3cc(Cl)c(OCc4cscn4)cc3[nH]2)CCC1 [Compound 506, N-((5-chloro-6-(thiazol-4-ylmethoxy)-1H-indol-2-yl)methyl)-1-methylcyclobutane-1-carboxamide]

Further lines, the molecule ahead of its results:

SMILES	IC50 [nM]
Cc1cc(COc2cc3[nH]c(CNC(=O)c4ccon4)cc3cc2Cl)on1 [Compound 450, N-((5-chloro-6-((3-methylisoxazol-5-yl)methoxy)-1H-indol-2-yl)methyl)isoxazole-3-carboxamide]	95.1
Cc1cc(CNc2cc3[nH]c(CNC(=O)C4(C)CC4)cc3cc2Cl)no1 [Compound 451, N-((5-chloro-6-(((5-methylisoxazol-3-yl)methyl)amino)-1H-indol-2-yl)methyl)-1-methylcyclopropane-1-carboxamide]	237
CC(=O)NCc1cc2c(F)cc(OCc3ccon3)cc2[nH]1 [Compound 453, N-((4-fluoro-6-(isoxazol-3-ylmethoxy)-1H-indol-2-yl)methyl)acetamide]	859
COC(C)COc1cc2[nH]c(CNC(=O)C3(C)CC3)cc2cc1Cl (stereo not shown) [Compound 454, N-((5-chloro-6-(2-methoxypropoxy)-1H-indol-2-yl)methyl)-1-methylcyclopropane-1-carboxamide]	787
CC(=O)NCc1cc2cc(Cl)c(OCCC3CCCO3)cc2[nH]1 (stereo not shown) [Compound 455, N-((5-chloro-6-(2-(tetrahydrofuran-2-yl)ethoxy)-1H-indol-2-yl)methyl)acetamide]	3530
CC(=O)NCc1cc2cc(Cl)c(OCCOC3CCC3)cc2[nH]1 [Compound 456, N-((5-chloro-6-(2-cyclobutoxyethoxy)-1H-indol-2-yl)methyl)acetamide]	4260
CC(=O)NCc1cc2cc(Cl)c(OCC3COCCO3)cc2[nH]1 (stereo not shown) [Compound 457, N-((6-((1,4-dioxan-2-yl)methoxy)-5-chloro-1H-indol-2-yl)methyl)acetamide]	3640
CC(=O)NCc1cc2cc(Cl)c(OCC3CC3(F)F)cc2[nH]1 (stereo not shown) [Compound 458, N-((5-chloro-6-((2,2-difluorocyclopropyl)methoxy)-1H-indol-2-yl)methyl)acetamide]	7670
CCOCCOc1cc2[nH]c(CNC(C)=O)cc2cc1Cl [Compound 459, N-((5-chloro-6-(2-ethoxyethoxy)-1H-indol-2-yl)methyl)acetamide]	505
CO[C@H]1C[C@H](Oc2cc3[nH]c(CNC(C)=O)cc3cc2Cl)C1 [Compound 462, N-((5-chloro-6-((trans)-3-methoxycyclobutoxy)-1H-indol-2-yl)methyl)acetamide]	2000
CO[C@H]1C[C@@H](Oc2cc3[nH]c(CNC(C)=O)cc3cc2Cl)C1 [Compound 463, N-((5-chloro-6-((cis)-3-methoxycyclobutoxy)-1H-indol-2-yl)methyl)acetamide]	> 8730
CC(=O)NCc1cc2cc(Cl)c(OC[C@H]3CCOC3)cc2[nH]1 [Compound 464, (S)-N-((5-chloro-6-((tetrahydrofuran-3-yl)methoxy)-1H-indol-2-yl)methyl)acetamide]	1350
CC(=O)NCc1cc2cc(Cl)c(OC[C@H]3CCCO3)cc2[nH]1 [Compound 465, (R)-N-((5-chloro-6-((tetrahydrofuran-2-yl)methoxy)-1H-indol-2-yl)methyl)acetamide]	6210
CC(=O)NCc1cc2cc(Cl)c(OC[C@@H]3CCCO3)cc2[nH]1 [Compound 466, (S)-N-((5-chloro-6-((tetrahydrofuran-2-yl)methoxy)-1H-indol-2-yl)methyl)acetamide]	2960
O=C(NCc1cc2cc(OC(F)(F)F)c(CCc3cocn3)cc2[nH]1)N1CCC1 [Compound 467, N-((6-(2-(oxazol-4-yl)ethyl)-5-(trifluoromethoxy)-1H-indol-2-yl)methyl)azetidine-1-carboxamide]	145
O=C(NCc1cc2cc(OC(F)(F)F)c(CCc3cocn3)cc2[nH]1)N1CCCC1 [Compound 468, N-((6-(2-(oxazol-4-yl)ethyl)-5-(trifluoromethoxy)-1H-indol-2-yl)methyl)pyrrolidine-1-carboxamide]	422
Cc1cc(CNc2cc3[nH]c(CNC(=O)N4CCCC4)cc3cc2Cl)no1 [Compound 469, N-((5-chloro-6-(((5-methylisoxazol-3-yl)methyl)amino)-1H-indol-2-yl)methyl)pyrrolidine-1-carboxamide]	392
Cc1c(CNC(=O)N2CCC2)[nH]c2cc(OCc3cscn3)c(Cl)cc12 [Compound 473, N-((5-chloro-3-methyl-6-(thiazol-4-ylmethoxy)-1H-indol-2-yl)methyl)azetidine-1-carboxamide]	293
O=C(NCc1[nH]c2cc(OCc3cscn3)c(Cl)cc2c1Cl)N1CCC1 [Compound 474, N-((3,5-dichloro-6-(thiazol-4-ylmethoxy)-1H-indol-2-yl)methyl)azetidine-1-carboxamide]	553
